Assay results taken from patent US8357694B2, “Substituted 5,6-dihydro-6-phenylbenzo[F]isoquinolin-2-amine compounds” (ArQule, Inc., priority 2008, dated 2013).

Tests used:
Type in all cases: cell-based
PC-3 = assay: MTS cell kill, PC-3
Procedure: (§1) Cells were maintained at 37° C., 5% CO2 in DMEM media supplemented with 1% fetal bovine serum, penicillin/streptomycin and fungizone (Invitrogen). Cells were seeded into 96-well tissue culture plates at 3000 per well and cultured at 37° C. for 18 hours. Test compounds were dissolved and diluted to 300× in DMSO then diluted 1:40 in DMEM.

NCI-H1299 = assay: MTS cell kill, NCI-H1299
Procedure: as §1

MDA-MB-231 = assay: MTS cell kill, MDA-MB-231
Procedure: as §1

DLD-1 = assay: MTS cell kill, DLD-1
Procedure: as §1

PACA-2 = assay: MTS cell kill, PACA-2
Procedure: as §1

KATO III = assay: MTS assay, KATO III
Procedure: as §1
Further: test concentration or dose not given here.

| Compound | MTS cell kill data (% inhibition) PC-3 (PC-3) | MTS cell kill data (% inhibition) NCI-H1299 (NCI-H1299) | MTS cell kill data (% inhibition) MDA-MB-231 (MDA-MB-231) | MTS cell kill data (% inhibition) DLD-1 (DLD-1) | MTS cell kill data (% inhibition) PACA-2 (PACA-2) | MTS cell kill data (% inhibition) KATO III (KATO III) |
| --- | --- | --- | --- | --- | --- | --- |
| CCCc1ccc(C(=O)Nc2ccc(C3Cc4cnc(NCCCCN(C)C)nc4-c4ccccc43)cc2)cc1 (stereo not drawn) [Example 470, N-[4-(2-{[4-(dimethylamino)butyl]amino}-5,6-dihydrobenzo[h]quinazolin-6-yl)phenyl]-4-propylbenzamide] | A (A = 80-100% inhibition) | A (A = 80-100% inhibition) | A (A = 80-100% inhibition) | A (A = 80-100% inhibition) | A (A = 80-100% inhibition) | A (A = 80-100% inhibition) |
| CN(C)CCCCNc1ncc2c(n1)-c1ccccc1C(c1ccc(NC(=O)c3ccccc3Br)cc1)C2 (stereo not drawn) [Example 466, 2-bromo-N-[4-(2-{[4-(dimethylamino)butyl]amino}-5,6-dihydrobenzo[h]quinazolin-6-yl)phenyl]benzamide] | B (B = 50-79% inhibition) | A (A = 80-100% inhibition) | B (B = 50-79% inhibition) | A (A = 80-100% inhibition) | A (A = 80-100% inhibition) | A (A = 80-100% inhibition) |
| COc1ccc(C(=O)Nc2ccc(C3Cc4cnc(NCCCCN(C)C)nc4-c4ccccc43)cc2)cc1F (stereo not drawn) [Example 474, N-[4-(2-{[4-(dimethylamino)butyl]amino}-5,6-dihydrobenzo[h]quinazolin-6-yl)phenyl]-3-fluoro-4-methoxybenzamide] | A (A = 80-100% inhibition) | A (A = 80-100% inhibition) | B (B = 50-79% inhibition) | A (A = 80-100% inhibition) | A (A = 80-100% inhibition) | A (A = 80-100% inhibition) |
| CN(C)CCCCNc1ncc2c(n1)-c1ccccc1C(c1ccc(NS(=O)(=O)c3ccc(C(C)(C)C)cc3)cc1)C2 (stereo not drawn) [Example 435, 4-tert-butyl-N-[4-(2-{[4-(dimethylamino)butyl]amino}-5,6-dihydrobenzo[h]quinazolin-6-yl)phenyl]benzenesulfonamide] | A (A = 80-100% inhibition) | A (A = 80-100% inhibition) | A (A = 80-100% inhibition) | A (A = 80-100% inhibition) | A (A = 80-100% inhibition) | A (A = 80-100% inhibition) |
| Cc1cccc(C(=O)Nc2ccc(C3Cc4cnc(NCCCCN(C)C)nc4-c4ccccc43)cc2)c1 (stereo not drawn) [Example 469, N-[4-(2-{[4-(dimethylamino)butyl]amino}-5,6-dihydrobenzo[h]quinazolin-6-yl)phenyl]-3-methylbenzamide] | A (A = 80-100% inhibition) | A (A = 80-100% inhibition) | A (A = 80-100% inhibition) | A (A = 80-100% inhibition) | A (A = 80-100% inhibition) | A (A = 80-100% inhibition) |
| CN(C)CCCCNc1ncc2c(n1)-c1ccccc1C(c1ccc(NS(=O)(=O)c3ccc(Br)s3)cc1)C2 (stereo not drawn) [Example 427, 5-bromo-N-[4-(2-{[4-(dimethylamino)butyl]amino}-5,6-dihydrobenzo[h]quinazolin-6-yl)phenyl]thiophene-2-sulfonamide] | B (B = 50-79% inhibition) | A (A = 80-100% inhibition) | A (A = 80-100% inhibition) | A (A = 80-100% inhibition) | A (A = 80-100% inhibition) | A (A = 80-100% inhibition) |
| COc1ccc(OC)c(CC(=O)Nc2ccc(C3Cc4cnc(NCCCCN(C)C)nc4-c4ccccc43)cc2)c1 (stereo not drawn) [Example 473] | A (A = 80-100% inhibition) | A (A = 80-100% inhibition) | A (A = 80-100% inhibition) | A (A = 80-100% inhibition) | A (A = 80-100% inhibition) | A (A = 80-100% inhibition) |
| Cc1ccc(S(=O)(=O)Nc2ccc(C3Cc4cnc(NCCCCN(C)C)nc4-c4ccccc43)cc2)cc1 (stereo not drawn) [Example 420, N-[4-(2-{[4-(dimethylamino)butyl]amino}-5,6-dihydrobenzo[h]quinazolin-6-yl)phenyl]-4-methylbenzenesulfonamide] | A (A = 80-100% inhibition) | A (A = 80-100% inhibition) | A (A = 80-100% inhibition) | A (A = 80-100% inhibition) | A (A = 80-100% inhibition) | A (A = 80-100% inhibition) |
| CNc1ncc2c(n1)-c1ccccc1C1(CCN(C(=O)Nc3ccc(C#N)cc3)CC1)C2 [Example 397, N-(4-cyanophenyl)-2-(methylamino)-1′H,5H-spiro[benzo[h]quinazoline-6,4′-piperidine]-1′-carboxamide] | – | C (C = <50% inhibition) | B (B = 50-79% inhibition) | B (B = 50-79% inhibition) | A (A = 80-100% inhibition) | A (A = 80-100% inhibition) |
| Cc1ccc(CNc2ccc(C3Cc4cnc(NCCCN5CCN(C)CC5)nc4-c4ccccc43)cc2)c(C)c1 (stereo not drawn) [Example 571, 6-{4-[(2,4-dimethylbenzyl)amino]phenyl}-N-[3-(4-methylpiperazin-1-yl)propyl]-5,6-dihydrobenzo[h]quinazolin-2-amine] | – | A (A = 80-100% inhibition) | A (A = 80-100% inhibition) | A (A = 80-100% inhibition) | A (A = 80-100% inhibition) | A (A = 80-100% inhibition) |
| CN(C)CCCCNc1ncc2c(n1)-c1ccccc1C(c1ccc(NS(=O)(=O)c3ccc(-c4ccccc4)cc3)cc1)C2 (stereo not drawn) [Example 421, N-[4-(2-{[4-(dimethylamino)butyl]amino}-5,6-dihydrobenzo[h]quinazolin-6-yl)phenyl]biphenyl-4-sulfonamide] | A (A = 80-100% inhibition) | A (A = 80-100% inhibition) | A (A = 80-100% inhibition) | A (A = 80-100% inhibition) | A (A = 80-100% inhibition) | A (A = 80-100% inhibition) |
| CNc1ncc2c(n1)-c1ccccc1C1(CCN(C(=O)Nc3cccc(Cl)c3)CC1)C2 [Example 408, N-(3-chlorophenyl)-2-(methylamino)-1′H,5H-spiro[benzo[h]quinazoline-6,4′-piperidine]-1′-carboxamide] | – | C (C = <50% inhibition) | C (C = <50% inhibition) | A (A = 80-100% inhibition) | A (A = 80-100% inhibition) | A (A = 80-100% inhibition) |
| CN(C)CCCCNc1ncc2c(n1)-c1ccccc1C(c1ccc(NS(=O)(=O)c3cccc(C(F)(F)F)c3)cc1)C2 (stereo not drawn) [Example 430, N-[4-(2-{[4-(dimethylamino)butyl]amino}-5,6-dihydrobenzo[h]quinazolin-6-yl)phenyl]-3-(trifluoromethyl)benzenesulfonamide] | A (A = 80-100% inhibition) | A (A = 80-100% inhibition) | A (A = 80-100% inhibition) | A (A = 80-100% inhibition) | A (A = 80-100% inhibition) | A (A = 80-100% inhibition) |
| CN1CCN(CCCNc2ncc3c(n2)-c2ccccc2C(c2ccc(NCc4cccc5cc[nH]c45)cc2)C3)CC1 (stereo not drawn) [Example 573, 6-{4-[(1H-indol-7-ylmethyl)amino]phenyl}-N-[3-(4-methylpiperazin-1-yl)propyl]-5,6-dihydrobenzo[h]quinazolin-2-amine] | – | A (A = 80-100% inhibition) | A (A = 80-100% inhibition) | A (A = 80-100% inhibition) | A (A = 80-100% inhibition) | A (A = 80-100% inhibition) |
| CCCc1ccc(CNc2ccc(C3Cc4cnc(NCCCN5CCN(C)CC5)nc4-c4ccccc43)cc2)cc1 (stereo not drawn) [Example 569, N-[3-(4-methylpiperazin-1-yl)propyl]-6-{4-[(4-propylbenzyl)amino]phenyl}-5,6-dihydrobenzo[h]quinazolin-2-amine] | – | A (A = 80-100% inhibition) | A (A = 80-100% inhibition) | A (A = 80-100% inhibition) | A (A = 80-100% inhibition) | A (A = 80-100% inhibition) |
| N#Cc1cccc(NC(=O)N2CCC3(CC2)Cc2cnc(Nc4ccc(N5CCNCC5)cc4)nc2-c2ccccc23)c1 [Example 412, N-(3-cyanophenyl)-2-[(4-piperazin-1-ylphenyl)amino]-1′H,5H-spiro[benzo[h]quinazoline-6,4′-piperidine]-1′-carboxamide] | – | A (A = 80-100% inhibition) | A (A = 80-100% inhibition) | A (A = 80-100% inhibition) | A (A = 80-100% inhibition) | A (A = 80-100% inhibition) |
